The values that follow come from US9744150B2, “Suspension containing micronized benzoyl peroxide” (Dow Pharmaceutical Sciences Inc., priority 2009, dated 2017).

A short description of the series: surface tension by Du Noüy ring method, Krüss K20 EasyDyne tensiometer. It counts as physicochemical. The following applies: for Surface tension: room temperature. How it is done: As used herein, the term “surface tension” refers to the force required to increase the unit area of a surface of a liquid or of an interface between two liquids or between a liquid and a gas, generally stated in units of dynes/cm. Surface tensions described herein are measured by the Du Noüy ring method utilizing an EasyDyne tensiometer model K20 marketed by Krüss USA, Matthews, N.C.
Surface tension of a fluid containing water was determined prior to and after mixing with various concentrations of various water soluble organic solvents in water. […] The study was performed at room temperature utilizing a Kruss Surface Tensiometer, Model K20 EasyDyne (Kruss USA, Matthews, N.C.) and the results are shown in Table 4. Values for surface tension are in dynes/cm.

As for `CC(O)CO` (stereo not shown) [Propylene Glycol USP, propylene glycol], the Surface tension stood at 70.8 dynes/cm (1.0 % w/w solvent in water); 68.7 dynes/cm (2.5 % w/w solvent in water); 65.9 dynes/cm (5 % w/w solvent in water); 63.6 dynes/cm (7.5 % w/w solvent in water); 61.7 dynes/cm (10 % w/w solvent in water); 59.7 dynes/cm (12.5 % w/w solvent in water). In addition, the Surface tension by setting is: (15.0 % w/w solvent in water) 58.3 dynes/cm; (17.5 % w/w solvent in water) 56.5 dynes/cm; (20 % w/w solvent in water) 55.2 dynes/cm; (22.5 % w/w solvent in water) 54.1 dynes/cm; (25 % w/w solvent in water) 52.8 dynes/cm; (30 % w/w solvent in water) 50.6 dynes/cm. In addition, under “100 % w/w solvent”, the Surface tension was 36.1 dynes/cm. Further, the “concentration suitable for the invention (surface tension less than 64 dynes/cm)” value (solvent in water, from the data of Table 4) is reported as not below 7.5%.

The compound `CCO` [Ethanol (200 proof), ethanol] gave a Surface tension (1.0 % w/w solvent in water) of 67.4 dynes/cm; a Surface tension (2.5 % w/w solvent in water) of 62.0 dynes/cm; a Surface tension (5 % w/w solvent in water) of 55.9 dynes/cm; a Surface tension (7.5 % w/w solvent in water) of 51.4 dynes/cm; a Surface tension (10 % w/w solvent in water) of 47.8 dynes/cm; a Surface tension (12.5 % w/w solvent in water) of 44.6 dynes/cm. The Surface tension by setting is: (15.0 % w/w solvent in water) 42.2 dynes/cm; (17.5 % w/w solvent in water) 40.2 dynes/cm; (20 % w/w solvent in water) 38.0 dynes/cm; (22.5 % w/w solvent in water) 36.6 dynes/cm; (25 % w/w solvent in water) 34.9 dynes/cm; (100 % w/w solvent) 22.3 dynes/cm.

For the compound `CCOCCOCCO` [Ethoxy Diglycol NF, ethoxydiglycol], the Surface tension by setting is: (1.0 % w/w solvent in water) 66.2 dynes/cm; (2.5 % w/w solvent in water) 62.5 dynes/cm; (5 % w/w solvent in water) 56.8 dynes/cm; (7.5 % w/w solvent in water) 55.3 dynes/cm; (10 % w/w solvent in water) 53.1 dynes/cm; (12.5 % w/w solvent in water) 50.4 dynes/cm. The Surface tension stood at 49.7 dynes/cm (15.0 % w/w solvent in water); 47.6 dynes/cm (17.5 % w/w solvent in water); 43.2 dynes/cm (20 % w/w solvent in water); 43.1 dynes/cm (22.5 % w/w solvent in water); 43.8 dynes/cm (25 % w/w solvent in water); 32.0 dynes/cm (100 % w/w solvent).

For `OCCCO` [1,3-Propanediol, 1,3-propanediol], the Surface tension is, setting by setting: (1.0 % w/w solvent in water) 69.8 dynes/cm; (2.5 % w/w solvent in water) 68.1 dynes/cm; (5 % w/w solvent in water) 64.6 dynes/cm; (7.5 % w/w solvent in water) 64.4 dynes/cm; (10 % w/w solvent in water) 61.2 dynes/cm; (12.5 % w/w solvent in water) 61.1 dynes/cm. In addition, the Surface tension reads like this: (15.0 % w/w solvent in water) 61.0 dynes/cm; (17.5 % w/w solvent in water) 58.9 dynes/cm; (20 % w/w solvent in water) 60.4 dynes/cm; (22.5 % w/w solvent in water) 58.2 dynes/cm; (25 % w/w solvent in water) 58.3 dynes/cm.

With `CC(C)O` [Isopropyl Alcohol, isopropyl alcohol], the Surface tension amounted to 62.1 dynes/cm (1.0 % w/w solvent in water); 47.3 dynes/cm (5 % w/w solvent in water); 42.0 dynes/cm (7.5 % w/w solvent in water); 38.6 dynes/cm (10 % w/w solvent in water); 35.7 dynes/cm (12.5 % w/w solvent in water); 33.1 dynes/cm (15.0 % w/w solvent in water). In addition, the Surface tension came out at 31.1 dynes/cm (17.5 % w/w solvent in water); 29.5 dynes/cm (20 % w/w solvent in water); 28.1 dynes/cm (22.5 % w/w solvent in water); 27.3 dynes/cm (25 % w/w solvent in water); 21.1 dynes/cm (100 % w/w solvent).

Take `CO[C@H]1CO[C@H]2[C@@H]1OC[C@H]2OC` [Dimethyl Isosorbide, dimethyl isosorbide]: the Surface tension is, setting by setting: (1.0 % w/w solvent in water) 66.0 dynes/cm; (2.5 % w/w solvent in water) 61.7 dynes/cm; (5 % w/w solvent in water) 52.8 dynes/cm; (7.5 % w/w solvent in water) 52.1 dynes/cm; (10 % w/w solvent in water) 47.9 dynes/cm; (12.5 % w/w solvent in water) 46.4 dynes/cm. Also, the Surface tension (15.0 % w/w solvent in water) amounted to 43.5 dynes/cm; the Surface tension (17.5 % w/w solvent in water) was 41.9 dynes/cm; the Surface tension (20 % w/w solvent in water) worked out at 38.6 dynes/cm; the Surface tension (22.5 % w/w solvent in water) was 40.5 dynes/cm; the Surface tension (25 % w/w solvent in water) is 41.7 dynes/cm; the Surface tension (100 % w/w solvent) came to 39.3 dynes/cm.

For `CC1COC(=O)O1` (stereo not shown) [Propylene Carbonate, propylene carbonate], the Surface tension was found to be 68.5 dynes/cm (1.0 % w/w solvent in water); 63.8 dynes/cm (2.5 % w/w solvent in water); 56.8 dynes/cm (5 % w/w solvent in water); 49.6 dynes/cm (7.5 % w/w solvent in water); 45.9 dynes/cm (10 % w/w solvent in water); 46.5 dynes/cm (12.5 % w/w solvent in water). In addition, the Surface tension by setting is: (15.0 % w/w solvent in water) 44.1 dynes/cm; (17.5 % w/w solvent in water) 43.5 dynes/cm.

`OCC(O)CO` [Glycerin USP, glycerin] showed a Surface tension (25 % w/w solvent in water) of 69.8 dynes/cm, a Surface tension (50 % w/w solvent in water) of 68.9 dynes/cm, a Surface tension (75 % w/w solvent in water) of 66.4 dynes/cm and a Surface tension (100 % w/w solvent) of 62.0 dynes/cm. Besides, the “suitability for the present method” value (by itself, at concentrations of 75% or less) is “not suitable”.
